Columns and labels:
[1] = tested on: fibrotic myocardial infarction scar; type: in vivo, rat; settings: directly labeled tracer
Protocol: Myocardial infarction of the left ventricle was induced in rats as follows. Male Wistar rats (CERJ, France) were housed in a controlled environment and fed with a standard rat chow. Myocardial infarction of the left ventricle was induced by ligature of the left descending coronary artery performed under general anesthesia [1 mL.kg^−1 i.p. ketamine (Imalgene 500, Merial) and 0.5 mL.kg^−1 i.p. xylazine (Rompun, Bayer)] and positive pressure ventilation, as described. This protocol was performed under a permit from the French Veterinary Services Directorate.
(§1) Two types of control animals were used: healthy rats, and healthy rats which had undergone a simple throracotomy (sham-operated). ^99mTc-biotin-collagelin blood kinetics and biodistribution were investigated by counting blood samples (taken from a jugular catheter) for 6 h after i.v. injection, and organs (extracted after sacrifice) 2 h after injection in a gamma-counter, together with aliquots of the injected preparation (CobraII, Packard, Meriden, USA). Ex vivo myocardial labeling and isotopic imaging were performed 4 weeks after the coronary ligature (or throracotomy), when the lesions had had the time to heal.
For in vivo experiments, radiotracers (70 MBq) were administered i.v. to anesthetized animals (pentobarbital i.p. 6 mg/100 g BW, Ceva Santé Animale, France) within 2 h of radiolabeling. Scintigraphic images were obtained 0–2 h, 4 h, 6 h, 10 h and 24 h after injecting ^99mTc-streptavidin-biotin peptides and 0–3 h after injecting ^99mTc-biotinylated peptides. Planar and tomographic 1-h acquisitions were performed using a dedicated small animal γIMAGER system (Biospace Lab, Paris, France) equipped with 2 parallel low-energy high-resolution collimators (matrix 128×128, 15% energy window centered on 140 KeV). Tracer uptake in the left cardiac area was assessed visually. Two regions of interest were drawn on the scintigrams, over the heart and over the right lung. The mean activity (cpm) per pixel was determined in each region of interest. Then heart-to-lung activity ratios (HLR) were calculated on both planar and transversal tomographic images.

[2] = tested on: rat myocardial scar sections; assay: Ex vivo incubation of myocardial scar sections with radiotracers; settings: directly Tc-99m-labeled peptides, 120 MBq/ml RPMI, 2 h, p<0.05
Protocol: Rat aorta and rat myocardial scar sections were incubated in the presence of ^99mTc-biotin-collagelin, +/−9012 moAb, or ^99mTc-biotin-control peptide Pc (120 MBq/ml of RPMI) for 2 h. The tissues were then rinsed 5 times for periods of 1 minute, and exposed to the gamma-camera as well as to the instant imager for quantitative autoradiography (Instant Imager, Packard) for 15 h.

in vivo = settings: rat, iv
Protocol: as §1

[3] = tested on: collagen fibers of the infarct scars; assay: Post mortem autoradiography of frozen myocardial sections; type: in vivo, rat; settings: directly Tc-99m-labeled peptides, frozen myocardial sections
Protocol: After sacrificing the animals, the heart was removed and frozen, then 20-micrometer thick myocardial sections were cut perpendicular to the short axis of the ventricles in a cryostat, and exposed in a radioimager for 16 h. According to calibration studies performed with activity standards of tissue-equivalent homogenates, 50 counts/mm^2 of ^99m Tc-labeled tracers corresponded to ∼210 kBq/mg in autoradiography. The myocardial sections used for autoradiography, and contiguous heart sections (5 µm) fixed in acetone (−20°C), were stained with hematoxylin-eosin, Masson's trichrome and picrosirius red to determine the location and extent of the fibrotic myocardial scarring.

murine laminin (murine) = murine laminin (murine) (UniProt P19137); assay: SPR; collagelin and laminin
[4] = tested on: collagen in sections of rat aorta and tail tendon; assay: Histochemical analysis of rat aorta and tail tendon sections; settings: frozen sections of rat aorta and tail tendon, biotin-peptide 200 µg/mL, HRP-coupled streptavidin
Protocol: Sections were counter-stained with hematoxylin-eosin (Merck). Collagen was stained using picrosirius red. Sections ([…]) of rat tail tendon were processed as above.

9O12.2 IgG = assay: SPR, 9O12.2 IgG injected over immobilized B-collagelin; type: binding
Protocol: 9O12.2 IgG was injected over biotin-peptides coupled to an SA-sensorchip in a Biacore 2000 instrument. […] In some experiments, the peptide was reduced by DTT on the sensor chip before the IgG was injected. Competition experiments were performed by mixing the IgG with recombinant soluble GPVI (25 µg.mL^−1). Collagen binding to the peptide was analyzed by injecting type-I collagen (200 µg.mL^−1) onto the peptide-coated sensorchip. Conversely, biotin-peptides (125, 250, 500 and 1000 µg.mL^−1) were perfused over fibrillar collagen immobilized on a CM5-sensorchip.

[5] = biological target: fibrillar type I collagen (Homo sapiens, UniProt P02452+P08123); assay: Solid phase assay on collagen-coated microtitration plates; type: binding; settings: n = 3
Protocol: Biotin-peptides (50 µg.mL^−1) were incubated on microtitration wells, coated with 1 µg of type-I collagen, convulxin, collagen related peptides, bovine fibrinogen, human fibronectin, rat vitronectin, murine laminin or bovine serum albumin. Bound peptides were detected using HRP-coupled extravidin and the HRP substrate O-phenyl-dianisidine.

Chain of fibrillar type I collagen (P02452 162-1218 limits assumed): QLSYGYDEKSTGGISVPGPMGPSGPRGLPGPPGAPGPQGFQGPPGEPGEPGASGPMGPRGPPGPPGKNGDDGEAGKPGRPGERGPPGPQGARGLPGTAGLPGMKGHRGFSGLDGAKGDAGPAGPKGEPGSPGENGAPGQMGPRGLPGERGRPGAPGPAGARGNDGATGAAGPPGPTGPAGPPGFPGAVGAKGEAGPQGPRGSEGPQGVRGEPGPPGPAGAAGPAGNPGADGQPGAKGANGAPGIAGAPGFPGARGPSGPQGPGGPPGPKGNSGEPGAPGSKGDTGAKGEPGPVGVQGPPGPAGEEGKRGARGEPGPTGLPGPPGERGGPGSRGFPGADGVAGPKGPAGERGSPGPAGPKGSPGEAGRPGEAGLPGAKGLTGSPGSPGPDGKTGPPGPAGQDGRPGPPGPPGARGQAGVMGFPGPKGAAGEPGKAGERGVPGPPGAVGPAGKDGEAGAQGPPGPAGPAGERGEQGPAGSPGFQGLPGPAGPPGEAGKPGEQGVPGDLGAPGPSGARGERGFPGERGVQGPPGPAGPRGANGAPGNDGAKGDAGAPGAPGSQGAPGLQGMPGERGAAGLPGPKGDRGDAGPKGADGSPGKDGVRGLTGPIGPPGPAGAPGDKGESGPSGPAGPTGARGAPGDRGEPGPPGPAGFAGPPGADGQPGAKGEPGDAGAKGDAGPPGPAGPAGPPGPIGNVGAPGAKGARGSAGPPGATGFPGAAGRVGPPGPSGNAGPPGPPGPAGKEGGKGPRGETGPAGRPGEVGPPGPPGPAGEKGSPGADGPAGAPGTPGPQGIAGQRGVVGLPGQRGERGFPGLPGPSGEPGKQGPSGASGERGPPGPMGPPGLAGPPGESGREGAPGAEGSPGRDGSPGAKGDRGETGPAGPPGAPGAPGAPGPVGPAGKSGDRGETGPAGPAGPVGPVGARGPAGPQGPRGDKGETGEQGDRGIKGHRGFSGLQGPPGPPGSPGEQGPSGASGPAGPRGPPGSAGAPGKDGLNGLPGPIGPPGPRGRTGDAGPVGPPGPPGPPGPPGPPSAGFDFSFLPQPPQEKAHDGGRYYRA
Chain of fibrillar type I collagen (P08123 80-1119 limits assumed): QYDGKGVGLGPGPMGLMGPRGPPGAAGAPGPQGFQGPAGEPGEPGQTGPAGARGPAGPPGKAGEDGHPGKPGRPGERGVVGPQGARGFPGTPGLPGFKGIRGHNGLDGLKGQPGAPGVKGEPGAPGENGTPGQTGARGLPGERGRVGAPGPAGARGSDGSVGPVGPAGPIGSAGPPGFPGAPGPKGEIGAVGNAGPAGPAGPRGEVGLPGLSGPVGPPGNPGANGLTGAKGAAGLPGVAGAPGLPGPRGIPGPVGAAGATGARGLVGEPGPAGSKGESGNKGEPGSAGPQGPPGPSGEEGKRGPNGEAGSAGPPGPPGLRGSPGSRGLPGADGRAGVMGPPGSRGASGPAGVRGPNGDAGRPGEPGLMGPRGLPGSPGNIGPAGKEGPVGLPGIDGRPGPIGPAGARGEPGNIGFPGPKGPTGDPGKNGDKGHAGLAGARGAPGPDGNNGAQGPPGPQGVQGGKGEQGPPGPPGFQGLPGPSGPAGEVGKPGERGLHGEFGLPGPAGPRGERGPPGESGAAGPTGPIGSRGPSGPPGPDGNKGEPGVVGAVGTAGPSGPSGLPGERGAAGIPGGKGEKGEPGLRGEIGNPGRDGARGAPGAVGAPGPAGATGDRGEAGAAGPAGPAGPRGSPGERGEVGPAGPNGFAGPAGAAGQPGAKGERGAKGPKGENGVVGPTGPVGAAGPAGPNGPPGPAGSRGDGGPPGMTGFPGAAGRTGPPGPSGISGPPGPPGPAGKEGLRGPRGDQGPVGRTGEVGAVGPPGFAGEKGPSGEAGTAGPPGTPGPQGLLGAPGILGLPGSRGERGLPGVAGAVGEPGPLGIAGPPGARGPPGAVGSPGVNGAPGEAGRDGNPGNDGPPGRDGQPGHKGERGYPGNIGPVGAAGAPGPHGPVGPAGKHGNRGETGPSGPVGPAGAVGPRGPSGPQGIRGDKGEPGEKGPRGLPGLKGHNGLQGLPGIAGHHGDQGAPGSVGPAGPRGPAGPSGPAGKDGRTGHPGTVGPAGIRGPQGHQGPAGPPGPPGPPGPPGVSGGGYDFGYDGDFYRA

Question: With `CSCC[C@@H]1NC(=O)[C@H](C(C)C)NC(=O)[C@H](CCCNC(=N)N)NC(=O)CNC(=O)[C@@H]2CCCN2C(=O)[C@@H](NC(=O)CNC(=O)[C@H](CO)NC(=O)CNC(=O)[C@H](CO)NC(=O)CCCC[C@@H]2SC[C@@H]3NC(=O)N[C@@H]32)CSSC[C@@H](C(N)=O)NC(=O)[C@@H]2CCCN2C(=O)CNC(=O)[C@H](CCC(=O)O)NC(=O)[C@H](CC(=O)O)NC(=O)[C@H](CC(=O)O)NC(=O)CNC(=O)[C@H](CC(C)C)NC(=O)[C@H](Cc2c[nH]cn2)NC(=O)[C@H](CC(C)C)NC(=O)CNC(=O)[C@H](Cc2c[nH]cn2)NC1=O` [^99mTc-collagelin, metal not drawn] as the molecule, how does the “Tracer uptake in the cardiac area, sham-operated rats” value ([1]; n = 6) read?
Answer: No tracer uptake

Question: What about the “Probe uptake in the cardiac area, rats with MI scars” value ([1]; planar and SPECT images two hours after injection, all but one of the rats, n = 8) of the same molecule?
Answer: significant uptake

Question: And the “Ex vivo uptake in scarred tissue of myocardial sections” value [2]?
Answer: accumulated in the scarred tissue

Question: What about the “Blood clearance half life” value (in vivo) of the same molecule?
Answer: 5 ± 0.5 min

Question: And the tissue uptake at 2 h (in vivo; 1 nmol, total radioactivity)?
Answer: 0.36 %ID/g

Question: And the “Autoradiographic labeling of the scar” value [3]?
Answer: coincided with the collagen fibers of the scars

Question: Which Kd (murine laminin (murine)) does the source give for “B-collagelin (collagelin conjugated with biotin) (peptide)” here?
Answer: 18.3 µM

Question: With “SGSGCPGRVMHGLHLGDDEGPC (disulfide) [B-collagelin]” as the molecule, how does the “Histochemical staining of tissue collagen” value [4] read?
Answer: Positive and specific brown staining

Question: And the Kd (9O12.2 IgG; read-out: KD of 9O12.2 IgG binding to immobilized B-collagelin, SPR, Biacore 2000, biotin-peptide on SA-sensorchip, IgG 1.25 to 10 µg/mL, KD = koff/kon)?
Answer: 1 µM

Question: And the “Binding to collagen-coated plates” value ([5]; peptide 50 µg/mL, HRP-coupled extravidin detection)?
Answer: bound

B1: GPVI-Fc: soluble recombinant GPVI, extracellular part of GPVI fused to the IgG Fc domain (protein)
chain: QSGPLPKPSLQALPSSLVPLEKPVTLRCQGPPGVDLYRLEKLSSSRYQDQAVLFIPAMKRSLAGRYRCSYQNGSLWSLPSDQLELVATGVFAKPSLSAQPGPAVSSGGDVTLQCQTRYGFDQFALYKEGDPAPYKNPERWYRASFPIITVTAAHSGTYRCYSFSSRDPYLWSAPSDPLELVVTGTSVTPSRLPTEPPSPVAEFSEATAELTVSFTNEVFTTETSRSITASPKESDSPAGPARQYYTK
modifications: left off: Fc (IgG), end not stated, kept
notes: soluble recombinant GPVI, extracellular part of GPVI fused to the IgG Fc domain
Question: For B1, which “Effect on binding of 9O12.2 IgG to collagelin” value (9O12.2 IgG; SPR competition, IgG 5 µg/ml mixed with recombinant soluble GPVI 25 µg/ml) is on record?
Answer: inhibited

Question: And the “Inhibition of B-collagelin binding to collagen-coated plates” value ([5]; competitor 50 µg/mL mixed with B-collagelin 50 µg/mL)?
Answer: completely inhibited

From publication PMC2680759, “Non-Invasive Molecular Imaging of Fibrosis Using a Collagen-Targeted Peptidomimetic of the Platelet Collagen Receptor Glycoprotein VI” (PLoS ONE, 2009)
